# Results: patent US7291601B1, “Arginine-rich anti-vascular endothelial growth factor peptides that inhibit growth and metastasis of human tumor cells by blocking angiogenesis” (Korea Greencross Corp., priority 1999, dated 2007)
# Key:
# [1] = molecular target: T1, VEGF (Homo sapiens, UniProt P15692); test: Inhibition of 125I-labeled VEGF binding to its receptors on HUVEC; settings: for IC50: HUVEC, peptides at 1, 4, 10 and 20 μM/sequence (FIG. 5)
# T1 sequence (P15692 27-191 isoform P15692-4): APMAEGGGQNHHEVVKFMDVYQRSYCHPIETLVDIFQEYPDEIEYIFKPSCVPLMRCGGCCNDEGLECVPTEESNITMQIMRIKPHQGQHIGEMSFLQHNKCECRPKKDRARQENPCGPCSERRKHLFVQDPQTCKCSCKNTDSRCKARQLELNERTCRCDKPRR
# Experimental: Then, the cells were transferred to a medium (Medium 199/25 mM HEPES, pH 7.4/0.1% bovine serum albumin) containing 0.2 ng of ^125I-labeled VEGF and various concentrations of peptides or combinatorial peptide libraries and reacted at 4° C. for 3 hours. The cells were washed twice with the same medium and once with PBS containing 0.1% albumin to remove the labeled VEGF which still remained uncombined. Thereafter, to quantify the labeled VEGF which bound to receptors present on the surface of the vascular endothelial cells, the cells were treated with 0.5 ml of a lysis solution (20 mM Tris-HCl, pH 7.4/1% TritonX-100) for 20 min, followed by measuring the resulting lysate for radioactivity with the aid of a γ-counter.
# The sequence of each peptide was indirectly decided through the analysis of amino acid compositions and its concentration was determined, after which 12 peptides were assayed for antagonism toward VEGF binding at various concentrations (1, 4, 10, and 20 μM/sequence).
# [2] = molecular target: T1, VEGF; test: 125I-labeled VEGF association with peptides fixed on ELISA plate, competition; assay type: binding; settings: determined from IC50: KD=IC50−[non-labeled Competitor]; fixed peptide 100 ng/well; read-out: dissociation constant (KD) between VEGF and peptide
# Experimental: To verify the postulated mechanism in which the screened peptides might be associated directly with VEGF so as to inhibit VEGF from binding to its receptors present on the surface of vascular endothelial cells, the following experiments were conducted. Each of the hexa-peptides was fixed on a 96-well ELISA plate at a concentration of 100 ng/well in such a manner that a 20% acetic acid solution containing each peptide was dried in air. The plate was treated three times with a phosphate buffered saline containing 0.1% albumin for 3 min each time. A solution of ^125I-labeled VEGF in the same phosphate buffered saline was added to the plate at a concentration of 0.2 ng/well and incubated at 37° C. for 1 hour to associate the labeled VEGF with the peptides. To remove the […] remaining unassociated, the plate washed four times with the same phosphate buffered saline for 3 min per each time, followed by measuring radioactivity with the aid of a γ-counter. As for the non-specific binding, it was determined by incubation in the presence of either a mixture of the labeled VEGF and non-labeled VEGF or a mixture of the fixed peptide and unfixed peptide in a molar ratio of 1:100. This was set as a negative control.
# With reference to FIG. 7, radioactivity measured from ^125I-labeled VEGF associated with fixed peptides is plotted versus molar ratios of a competitor, such as non-labeled VEGF or free peptides, to its counterpart. […] The dissociation constant (KD) between VEGF and each peptide was determined using the IC50) value according to the following formula (De Blasi, A. et al., Trends Pharmacol. Sci., 10, 227 (1989)). KD=IC50−[non-labeled Competitor]
# [3] = system: VEGF-induced DNA synthesis of HUVEC; test: VEGF-induced DNA synthesis of HUVEC ([methyl-3H] thymidine); assay type: cell-based, human; settings: FIG. 10a
# Experimental: In a gelatin-coated 48-well plate (Nunc) HUVEC were cultured at a density of 10^4 cells/well at 37° C. for one day, followed by washing the cells three times with serum-free medium 199. After being added with culture media containing VEGF (10 ng/ml, R&D systems) and various concentrations of the screened peptides, the cells were cultured at 37° C. After 24 hours of culturing, the cells were added with [methyl-^3H] thymidine (0.5 μCi/well) and cultured for an additional one day. Before quantification of the radioactivity used for the DNA synthesis with the aid of a liquid scintillation counter, the cells were washed with PBS containing 0.1% albumin, treated with 0.4 N NaOH at room temperature for 20 min for cell lysis, and neutralized with 2 N HCl. In order to determine the toxicity of the peptides, HUVEC were examined as in above using excess peptide (100 μM) in the absence of VEGF.
# [4] = system: egg CAM (chorioallantoic membranes); test: Egg CAM assay, angiogenesis induced by VEGF; assay type: in vivo; settings: VEGF 10 ng/egg alone or with 1 μg sample; for Angiogenic activity(%): (standard deviation)
# Experimental: Fertilized eggs (Pulmuwon, Korea) were incubated at 37° C. under a humidity of 90%. After three days of culturing, the eggs were deprived of about 2 ml of albumin. After four days, eggs were partially deprived of the sheath to make a window with a size of 2×2 cm.
# After VEGF (10 ng/egg) was mixed with various amounts of peptides or other samples, 3 μl of each mixture was dropped onto ¼ fraction pieces of thermanox coverslips (Nunc) and dried. The pieces were placed on CAM of 9-day embryonic eggs.
# Two days later, the samples were independently observed under anatomical microscopes by two different persons to determine whether new blood vessels are induced by the dropped samples or not. In this regard, the experiment was repeated at least three times using 10 or more eggs per sample and the results are given in Table 5, below.
# [5] = system: HM7 (human colon carcinoma cell line); test: Growth of HM7 cancer cells in vitro (tetrazolium dye); assay type: cell-based; settings: 5×10^3 cells/well
# Description: In order to conduct an experiment concerning the metastasis of cancer cells to the liver, cancerous cells were transplanted into the spleen. In this regard, after being anesthetized with diethyl ether, 4-week-old male mice (athymic nude mice, BALB/c/nu/nu, Charles River, Japan) underwent flank incision. […] Four weeks after the injection, the liver was excised from each mouse and measured for weight and the size and number of metastatic nodules formed. Each test group was composed of 6-7 mice. In a student's t-test, a p value less than 0.05 was regarded as being statistically significant. In the test using tetrazolium dye (cell titer 96 Non-radioactive Proliferation Assay Kit, Promega), each peptide was evaluated to have no influence on the growth of the cancer cells (5×10^3 cells/well), so that the possibility that the toxicity of the peptide themselves might inhibit the growth and metastasis of cancer cells could be excluded.
# [6] = Acute toxicity test on rat upon non-oral administration; assay type: in vivo; settings: 1 mg/kg, intramuscular injection; for LD50: rat, in vivo, im, SD rats, read-out: lethal dose (LD50)
# Experimental: Using specific pathogen-free (SPF) SD rats which were six weeks old, the peptides of Sequences 1, 2, and 3 were tested for acute toxicity. Suspensions of the peptides in 1 ml of PBS were administered at a dose of 1 mg/kg to the rats, which were grouped in twos, by intramuscular injection. […] An autopsy was made of the rats with the naked eye to observe whether their abdominal and thoracic organs were damaged. Neither sudden death nor noticeable clinical symptoms were detected in any of the animals administered with the peptides of interest.
Compound,IC50 [1] [µM],Kd [2] [µM],inhibition of VEGF-induced growth of vascular endothelial cells [3],Angiogenic activity eggs/total eggs [4],Angiogenic activity(%) [4],influence on growth of the cancer cells / cytotoxicity to human colon carcinoma cells [5],toxic changes to the rats [6],LD50 [6] [mg/kg],"inhibition of binding of labeled VEGF165 to its receptors ([1]; recombinant labeled VEGF165, FIG. 9)"
"N=C(N)NCCC[C@H](NC(=O)[C@H](CCCNC(=N)N)NC(=O)[C@H](CCCNC(=N)N)NC(=O)[C@H](CCCNC(=N)N)NC(=O)[C@H](CCCNC(=N)N)NC(=O)[C@@H](N)CCCNC(=N)N)C(N)=O [compound 11, NH2-Arg-Arg-Arg-Arg-Arg-Arg-CONH2]",3.8,22,inhibit the VEGF-induced growth of vascular endothelial cells in a dose-dependent pattern,4/26,15.6(5.1) %,damage neither,no toxic changes,≥ 1,–
"H-RRKRRR-NH2 [compound 8, NH2-Arg-Arg-Lys-Arg-Arg-Arg-CONH2]",2,5,inhibit the VEGF-induced growth of vascular endothelial cells in a dose-dependent pattern,4/26,15.6(5.1) %,damage neither,no toxic changes,≥ 1,inhibited
"H-RKKRKR-NH2 [compound 1, NH2-Arg-Lys-Lys-Arg-Lys-Arg-CONH2]",3.4,2,inhibit the VEGF-induced growth of vascular endothelial cells in a dose-dependent pattern,4/26,15.6(4.5) %,damage neither,no toxic changes,≥ 1,–
